Measured values as given in the NIST ThermoML archive (doi:10.1021/acs.jced.5b00623).
Several values for one entry are separate records, joined by “and”; a condition that tells them apart may be missing. Equal entries are not always repeated.

Conditions: for vapor or sublimation pressure: Closed cell (Static) method

O=C(C(F)(F)C(F)(F)F)C(F)(C(F)(F)F)C(F)(F)F [dodecafluoro-2-methylpentan-3-one]
Conditions | mass density [kg/m3] | speed of sound [m/s]
225.01 K, 992.5 kPa, Liquid, Buoyancy - hydrostatic balance with magnetic suspension - two sinkers | 1809.67 | –
225.01 K, 6306.6 kPa, Liquid, Buoyancy - hydrostatic balance with magnetic suspension - two sinkers | 1821.02 | –
235 K, 11155 kPa, Liquid, Buoyancy - hydrostatic balance with magnetic suspension - two sinkers | 1806.22 | –
240 K, 16200 kPa, Liquid, Buoyancy - hydrostatic balance with magnetic suspension - two sinkers | 1804.64 | –
245 K, 21227 kPa, Liquid, Buoyancy - hydrostatic balance with magnetic suspension - two sinkers | 1803.18 | –
250 K, 26208 kPa, Liquid, Buoyancy - hydrostatic balance with magnetic suspension - two sinkers | 1801.77 | –
260 K, 1145.1 kPa, Liquid, Buoyancy - hydrostatic balance with magnetic suspension - two sinkers | 1716.09 | –
260 K, 6242.2 kPa, Liquid, Buoyancy - hydrostatic balance with magnetic suspension - two sinkers | 1731.21 | –
260 K, 12122 kPa, Liquid, Buoyancy - hydrostatic balance with magnetic suspension - two sinkers | 1746.98 | –
260 K, 18392 kPa, Liquid, Buoyancy - hydrostatic balance with magnetic suspension - two sinkers | 1762.27 | –
260 K, 27930 kPa, Liquid, Buoyancy - hydrostatic balance with magnetic suspension - two sinkers | 1783.14 | –
260 K, 36060 kPa, Liquid, Buoyancy - hydrostatic balance with magnetic suspension - two sinkers | 1799.13 | –
270 K, 8922.2 kPa, Liquid, Buoyancy - hydrostatic balance with magnetic suspension - two sinkers | 1713.2 | –
275 K, 12791 kPa, Liquid, Buoyancy - hydrostatic balance with magnetic suspension - two sinkers | 1711.88 | –
278.15 K, 83 kPa, Liquid, Vibrating tube method | 1660.83 | –
280 K, 16636 kPa, Liquid, Buoyancy - hydrostatic balance with magnetic suspension - two sinkers | 1710.6 | –
283.15 K, 83 kPa, Liquid, Vibrating tube method | 1646.79 | –
285 K, 20456 kPa, Liquid, Buoyancy - hydrostatic balance with magnetic suspension - two sinkers | 1709.38 | –
288.15 K, 83 kPa, Liquid, Vibrating tube method | 1632.33 | –
290 K, 24255 kPa, Liquid, Buoyancy - hydrostatic balance with magnetic suspension - two sinkers | 1708.2 | –
293.15 K, 83 kPa, Liquid, Vibrating tube method | 1617.51 | –
295 K, 28026 kPa, Liquid, Buoyancy - hydrostatic balance with magnetic suspension - two sinkers | 1707.06 | –
298.15 K, 83 kPa, Liquid, Vibrating tube method | 1602.48 | –
303 K, 1007.3 kPa, Liquid, Buoyancy - hydrostatic balance with magnetic suspension - two sinkers | 1592.53 | –
303 K, 1089 kPa, Liquid, Buoyancy - hydrostatic balance with magnetic suspension - two sinkers | 1592.94 | –
303 K, 5959.8 kPa, Liquid, Buoyancy - hydrostatic balance with magnetic suspension - two sinkers | 1615.54 | –
303 K, 6069.2 kPa, Liquid, Buoyancy - hydrostatic balance with magnetic suspension - two sinkers | 1616.01 | –
303 K, 12121 kPa, Liquid, Buoyancy - hydrostatic balance with magnetic suspension - two sinkers | 1639.93 | –
303 K, 22348 kPa, Liquid, Buoyancy - hydrostatic balance with magnetic suspension - two sinkers | 1673.62 | –
303 K, 28346 kPa, Liquid, Buoyancy - hydrostatic balance with magnetic suspension - two sinkers | 1690.63 | –
303 K, 33973 kPa, Liquid, Buoyancy - hydrostatic balance with magnetic suspension - two sinkers | 1705.21 | –
303.15 K, 83 kPa, Liquid, Vibrating tube method | 1587.28 | –
308.15 K, 83 kPa, Liquid, Vibrating tube method | 1571.82 | –
310 K, 4843.5 kPa, Liquid, Buoyancy - hydrostatic balance with magnetic suspension - two sinkers | 1590.92 | –
318 K, 9214.8 kPa, Liquid, Buoyancy - hydrostatic balance with magnetic suspension - two sinkers | 1589.2 | –
318 K, 9295.7 kPa, Liquid, Buoyancy - hydrostatic balance with magnetic suspension - two sinkers | 1589.59 | –
324.97 K, 65.34 kPa, Gas, Spherical resonator | – | 90.45
324.97 K, 82.58 kPa, Gas, Spherical resonator | – | 89.49
324.97 K, 100.55 kPa, Gas, Spherical resonator | – | 88.41
324.97 K, 100.57 kPa, Gas, Spherical resonator | – | 88.41
324.97 K, 100.58 kPa, Gas, Spherical resonator | – | 88.41
326.01 K, 13558 kPa, Liquid, Buoyancy - hydrostatic balance with magnetic suspension - two sinkers | 1587.57 | –
334.01 K, 17866 kPa, Liquid, Buoyancy - hydrostatic balance with magnetic suspension - two sinkers | 1585.99 | –
334.02 K, 17984 kPa, Liquid, Buoyancy - hydrostatic balance with magnetic suspension - two sinkers | 1586.44 | –
340 K, 1091.8 kPa, Liquid, Buoyancy - hydrostatic balance with magnetic suspension - two sinkers | 1474.85 | –
340 K, 4035.6 kPa, Liquid, Buoyancy - hydrostatic balance with magnetic suspension - two sinkers | 1497.23 | –
340 K, 7986.5 kPa, Liquid, Buoyancy - hydrostatic balance with magnetic suspension - two sinkers | 1522.5 | –
340 K, 11938 kPa, Liquid, Buoyancy - hydrostatic balance with magnetic suspension - two sinkers | 1544.06 | –
340 K, 16171 kPa, Liquid, Buoyancy - hydrostatic balance with magnetic suspension - two sinkers | 1564.25 | –
340 K, 21184 kPa, Liquid, Buoyancy - hydrostatic balance with magnetic suspension - two sinkers | 1585.31 | –
342.01 K, 22145 kPa, Liquid, Buoyancy - hydrostatic balance with magnetic suspension - two sinkers | 1584.49 | –
349.97 K, 150.02 kPa, Gas, Spherical resonator | – | 90.93
349.97 K, 191.77 kPa, Gas, Spherical resonator | – | 88.85
349.98 K, 61.83 kPa, Gas, Spherical resonator | – | 94.86
349.98 K, 106.24 kPa, Gas, Spherical resonator | – | 92.93
350 K, 53.94 kPa, Gas, Spherical resonator | – | 95.2
350 K, 104.66 kPa, Gas, Spherical resonator | – | 93
350 K, 152.11 kPa, Gas, Spherical resonator | – | 90.82
350 K, 191.03 kPa, Gas, Spherical resonator | – | 88.88
350 K, 26385 kPa, Liquid, Buoyancy - hydrostatic balance with magnetic suspension - two sinkers | 1583.04 | –
360 K, 1009.8 kPa, Liquid, Buoyancy - hydrostatic balance with magnetic suspension - two sinkers | 1401.62 | –
360 K, 6002.5 kPa, Liquid, Buoyancy - hydrostatic balance with magnetic suspension - two sinkers | 1449.57 | –
360 K, 8915.5 kPa, Liquid, Buoyancy - hydrostatic balance with magnetic suspension - two sinkers | 1471.34 | –
360 K, 11021 kPa, Liquid, Buoyancy - hydrostatic balance with magnetic suspension - two sinkers | 1485.32 | –
360 K, 16073 kPa, Liquid, Buoyancy - hydrostatic balance with magnetic suspension - two sinkers | 1514.43 | –
360 K, 21146 kPa, Liquid, Buoyancy - hydrostatic balance with magnetic suspension - two sinkers | 1539.18 | –
360 K, 31620 kPa, Liquid, Buoyancy - hydrostatic balance with magnetic suspension - two sinkers | 1581.19 | –
370 K, 4182.9 kPa, Liquid, Buoyancy - hydrostatic balance with magnetic suspension - two sinkers | 1400.06 | –
375.01 K, 57.06 kPa, Gas, Spherical resonator | – | 98.91
375.01 K, 123.45 kPa, Gas, Spherical resonator | – | 96.64
375.01 K, 220.4 kPa, Gas, Spherical resonator | – | 93.07
375.01 K, 316.42 kPa, Gas, Spherical resonator | – | 89.11
380 K, 7353.3 kPa, Liquid, Buoyancy - hydrostatic balance with magnetic suspension - two sinkers | 1398.51 | –
380.04 K, 16688 kPa, Liquid, Buoyancy - hydrostatic balance with magnetic suspension - two sinkers | 1468.1 | –
385.99 K, 9254.1 kPa, Liquid, Buoyancy - hydrostatic balance with magnetic suspension - two sinkers | 1397.63 | –
393.98 K, 11788 kPa, Liquid, Buoyancy - hydrostatic balance with magnetic suspension - two sinkers | 1396.48 | –
400 K, 2018.5 kPa, Liquid, Buoyancy - hydrostatic balance with magnetic suspension - two sinkers | 1244.05 | –
400 K, 3987.4 kPa, Liquid, Buoyancy - hydrostatic balance with magnetic suspension - two sinkers | 1284.55 | –
400 K, 8129.1 kPa, Liquid, Buoyancy - hydrostatic balance with magnetic suspension - two sinkers | 1342.48 | –
400.01 K, 11999 kPa, Liquid, Buoyancy - hydrostatic balance with magnetic suspension - two sinkers | 1381.28 | –

83 kPa, Liquid, Frequency=3 MHz, Sing-around technique in a fixed-path interferometer
Conditions | speed of sound [m/s]
278.15 K | 567.88
283.15 K | 551.54
288.15 K | 535.45
293.15 K | 519.58
298.15 K | 503.72
303.15 K | 488.11
308.15 K | 472.63

Liquid
Conditions | vapor or sublimation pressure
324.96 K | 111.4 kPa and 111.4 kPa
324.97 K | 111.4 kPa and 111.3 kPa
324.98 K | 111.6 kPa
339.95 K | 180.3 kPa
349.99 K | 242.7 kPa
354.98 K | 278.7 kPa
370 K | 413.4 kPa
374.99 K | 467.9 kPa and 467.6 kPa
390.03 K | 663.7 kPa
